Results published in patent US11801231B2, “Oral compositions and methods of use” (3M INNOVATIVE PROPERTIES COMPANY, priority 2017, dated 2023).

Test system: Streptococcus mutans biofilm
Assay: Biofilm disruption test (modified MBEC assay)
Format: cell-based, Streptococcus mutans (ATCC 25175)
Source text: In some embodiments, disclosed compositions can prevent, inhibit, disrupt, disperse, reduce the formation or maintenance of a biofilm in an area contacted with the composition. In some embodiments, a composition can prevent, inhibit, disrupt, disperse, reduce the formation or maintenance of a biofilm in a mouth of a user where the composition was applied to the mouth when compared to a mouth without the composition applied thereto. […] Preventing, inhibiting, disrupting, dispersing, reducing, controlling, or some combination thereof the formation or maintenance of biofilms can be measured using a modified version of the MBEC assay (described in ASTM E2799), which measures disruption of Streptococcus mutans biofilms grown on special pegs in a microtiter plate. […] The biofilm remaining on each peg following treatment is quantified by measuring the amount of fluorescently labeled bacteria that eluted from the pegs at the end of the treatment cycles (see example). […] Decreasing plaque buildup can be measured by a variety of methods in vivo including for example plaque scoring, dyeing of plaque, etc.
This method utilizes the high throughput MBEC assay system (Innovotech, Calgary, AB Canada). The method evaluates efficacy of a treatment in disrupting biofilm by quantifying the amount of fluorescent-labeled biofilm remaining on MBEC inoculator pegs after exposure to relevant treatment conditions. […]

`N=C(NCCCCCCNC(=N)NC(=N)Nc1ccc(Cl)cc1)NC(=N)Nc1ccc(Cl)cc1.O=C(O)[C@H](O)[C@@H](O)[C@H](O)[C@H](O)CO.O=C(O)[C@H](O)[C@@H](O)[C@H](O)[C@H](O)CO` [0.1% CHG, chlorhexidine gluconate] was tested, and the “Normalized Relative Fluorescence (%)” value (normalized to PBS negative control in the same plate, low value = more biofilm disruption) was 3.8% and the “Fluorescence intensity of Alexafluor 488-labeled S. mutans biofilm matrix” value (two 1-minute treatment cycles, biofilm eluted from MBEC pegs, ex 488 nm, em 525 nm) was 1281 a.u.
